From PMC12648313, “Enhancing the Efficacy, Utility, and Throughput of the Transcription Block Survival Peptide Library Screening Platform” (JACS Au, 2025)

Key:
CREB1-CRE complex = biological target: T1, CREB1-CRE complex (Homo sapiens, UniProt P16220); experiment: FP antagonism assay CREB1-CRE; type: biochemical; conditions: FP IC50, CREB1-CRE vs ATF2-CRE
T1 construct: Ala283 to Asp341
T1 sequence (P16220 283-341 isoform P16220-1): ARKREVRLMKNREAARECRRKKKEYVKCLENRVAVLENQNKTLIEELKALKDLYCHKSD
Method: (§1) Fluorescence polarization (FP) was next utilized to confirm that ATF2W binding induces the intended antagonism of the ATF2-CRE interaction. […] To assess ATF2W antagonism, 625 nM ATF2, which corresponded to 80% of the maximum DNA binding, was incubated with CRE DNA (10 nM) and varied concentrations of ATF2W (29 nM-12 μM). […] This represents a ∼ 3-fold selectivity for ATF2. […] As the peptide library was designed using established coiled coil interaction rules, it was expected that many sequences would bind the target.
(§2) (DMF). Deprotection was performed by addition of 0.75 mL 30% pyrrolidine into the coupling reaction. Peptides were acetylated at the N-terminus by a final reaction with 3x acetic anhydride, 4.5x diisopropylethylamine in DMF for one hour at room temperature. Incubation in a cleavage mixture (95% TFA, 2.5% triisopropylsilane, 2.5% H2O, 10 mL) for 4 h at room temperature cleaved the peptide from the resin and removed side chain protecting groups.
(§3) 2.5% DODT was added to the cleavage cocktail for ATF2. The resin was removed by filtration and cleaved peptides were precipitated in diethyl ether at -80°C and centrifuged.
(§4) This pellet was washed a further four times with diethyl ether before it was dried overnight at room temperature. […]

ATF2 [1] = biological target: T2, ATF2 (Homo sapiens, UniProt P15336); experiment: CD thermal denaturation, ATF2/ATF2W mixture; type: binding
T2 construct: human ATF2 bZIP domain spans from Asp352 to Gln410; made in house; host or cells: chemical synthesis (Fmoc solid-phase peptide synthesis), no expression host
T2 sequence (P15336 352-410): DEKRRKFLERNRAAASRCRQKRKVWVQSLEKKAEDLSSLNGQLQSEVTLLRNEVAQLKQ
Text: (§5) removed before peptide concentration determination.
(§6) Peptide samples were suspended in 20

ATF2 [2] = biological target: T2, ATF2; experiment: Isothermal titration calorimetry; type: binding; conditions: 20 °C, pH 7.4, average of three independent experiments ± SD
Text: 5 Biophysical characterization of the ATF2-ATF2W interaction. (A) CD spectra of ATF2 and ATF2W indicating an increase in helicity upon mixture of the two components, indicative of the formation of a heterodimeric coiled coil. (B) CD thermal denaturation experiment indicates a T m shift upon mixture of ATF2/ATF2W, supporting the formation of a stable heterodimer. The “average” CD trace in A and B represents an averaged value of the two unbound components which would be the trace for no interaction. (C) ITC data for ATF2W (50 μM) titrated into ATF2 (5 μM) at 20 °C. The raw power compensation plot is shown in the upper graph and the integrated data points and single site model fitted line are shown in the lower graph. […] ATF2W is selective for ATF2, with a ∼ 3-fold reduction in antagonism for CREB1/CRE and cJun/TRE despite high structural and sequence homology. […]
as §5, §6
(§7) Post-melt scans at 20°C confirmed the
(§8) Sequential 2 µL injections of ATF2W (50 µM)
(§9) Data from a control experiment whereby […]
(§10) errors are given as one standard deviation.
Fluorescence polarisation: Fluorescence polarisation was measured in a CLARIOstar

ATF2 [3] = biological target: T2, ATF2; experiment: Circular dichroism spectra; type: binding; conditions: pH 7.4
Text: as §5, §6

cJun-TRE complex = biological target: T3, cJun-TRE complex (Homo sapiens, UniProt P05412); experiment: FP antagonism assay cJun-TRE; type: biochemical
T3 construct: In the case of the CREB1 and cJun bZIP domains

FAM-CRE DNA = experiment: FP binding of ATF2W to CRE DNA; conditions: ATF2W 9 nM-10 μM, FAM-CRE DNA 10 nM, up to 1000x excess
Method: as §5, §6, §7, §8, §9, §10
Fluorescence polarisation: Fluorescence polarisation was measured in a CLARIOstar […]
chloride, 5 mM MgCl2, 10 mM TCEP, pH 7.4 buffer. Palindromic FAM-CRE DNA oligo was […]
purchased from Merck: 5’[6FAM]- […]. 200 µM of the oligo was […]
prepared in water and then annealed by heating to 95°C for 10 minutes before cooling slowly to room temperature to give a 100 µM duplex stock. Samples containing 10 nM FAM-CRE and a serial dilution of ATF2 (12 nM-10 µM) were prepared and incubated at room temperature for 1 hour before transferring to the assay plate for measurement. Data were fit to a one site binding model. For antagonism experiments, the ATF2 concentration required for 80% response was selected. Samples containing 10 nM FAM-TRE, 625 nM ATF2 and a serial dilution of ATF2W (29 nM-12 µM) were prepared and incubated at room temperature for 2 hours before transferring to the assay plate for measurement. CREB1/CRE, cJun/TRE and DLX5/H-box DNA antagonism were determined by the equivalent experiments, using the FAM-CRE oligo above; FAM-TRE DNA oligoes: 5’-[6FAM]-[…], 5’- […]
[6FAM]-[…]; and palindromic FAM-H-Box oligo: 5’-[6FAM]- […]

ATF2-CRE DNA interaction = biological target: T4, ATF2-CRE DNA interaction (Homo sapiens, UniProt P15336); experiment: FP antagonism assay ATF2-CRE; type: biochemical; conditions: up to 12 μM ATF2W
T4 construct: human ATF2 bZIP domain spans from Asp352 to Gln410; made in house; host or cells: chemical synthesis (Fmoc solid-phase peptide synthesis), no expression host
T4 sequence (P15336 352-410): T2 sequence (P15336 352-410)
Method: as §1, §2, §3, §4

Substance: Ac-LEQQLEELAQENEELEKEAAELQQQIARLKNEVAKLENENKTLDREIKALQREYSHKSD-NH2 [ATF2W]
- fold selectivity for ATF2 over CREB1 (CREB1-CRE complex): ~3 -fold
- ΔTm relative to ATF2W alone (ATF2 [1]; heterodimeric ATF2/ATF2W sample vs ATF2W alone): 18 °C
- Tm (ATF2 [1]; heterodimeric ATF2/ATF2W sample, 222 nm, 1 to 95 °C, pH 7.4, 10 mM TCEP.HCl, two-state model): 55 °C
- Kd (ATF2 [2]; ATF2W (50 μM) titrated into ATF2 (5 μM), 50 mM potassium phosphate, 150 mM NaCl, 10 mM TCEP, one-site model): 114 ± 21 nM
- -TΔS (ATF2 [2]; ITC): 40 ± 4 kJ mol^–1
- N (stoichiometry) (ATF2 [2]; ITC): 0.99 ± 0.01
- ΔH (ATF2 [2]; ITC): −79 ± 3 kJ mol^–1
- increase in helicity upon mixing, relative to the average (ATF2 [3]; 1:1 mixture with ATF2 (5 μM each) vs average of individual components (10 μM each), 20 mM potassium phosphate, 150 mM potassium fluoride, 10 mM TCEP.HCl, 222 nm): 32%
- 222/208 ratio of heterodimer spectrum (ATF2 [3]; 1:1 mixture with ATF2 (5 μM each)): 0.8
- fold selectivity for ATF2 over cJun (cJun-TRE complex; FP IC50, cJun-TRE vs ATF2-CRE): ~3 -fold
- IC50 (cJun-TRE complex; FP, FAM-TRE DNA, equivalent experiment, pH 7.4): 1850 ± 213 nM
- interaction with CRE DNA (FAM-CRE DNA): does not interact with CRE DNA
- ATF2-CRE antagonism at top concentrations (ATF2-CRE DNA interaction): reducing the FP value to that of free DNA
